Results from patent US11420958B2, “Aryl and heteroaryl substituted indole compounds” (BRISTOL-MYERS SQUIBB COMPANY, priority 2017, dated 2022).
pIC50: −log10 of the molar value.

What was measured:
Format in all cases: cell-based
human TLR9 = human TLR9 (Homo sapiens (Human), UniProt Q9NR96); assay: TLR9 inhibition reporter assay (HEK-Blue, SEAP); settings: HEK-Blue cells overexpressing human TLR9, ODN2006 5 nM stimulation
Procedure, shortened: (§1)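 Cells are treated with compound over a 0.05 nM–50 μM final range for 30 min at room temperature before agonist addition: gardiquimod at 7.5 μM for TLR7, R848 at 15.9 μM for TLR8, ODN2006 at 5 nM for TLR9. SEAP is measured after 22 h at 37 °C.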

human TLR8 = human TLR8 (Homo sapiens (Human), UniProt Q9NR97); assay: TLR8 inhibition reporter assay (HEK-Blue, SEAP); settings: HEK-Blue cells overexpressing human TLR8, R848 15.9 μM stimulation
Procedure, shortened: as §1

human TLR7 = human TLR7 (Homo sapiens (Human), UniProt Q9NYK1); assay: TLR7 inhibition reporter assay (HEK-Blue, SEAP); settings: HEK-Blue cells overexpressing human TLR7, gardiquimod 7.5 μM stimulation
Procedure, shortened: as §1

human TLR8, sequence (Q9NR97 27-1041): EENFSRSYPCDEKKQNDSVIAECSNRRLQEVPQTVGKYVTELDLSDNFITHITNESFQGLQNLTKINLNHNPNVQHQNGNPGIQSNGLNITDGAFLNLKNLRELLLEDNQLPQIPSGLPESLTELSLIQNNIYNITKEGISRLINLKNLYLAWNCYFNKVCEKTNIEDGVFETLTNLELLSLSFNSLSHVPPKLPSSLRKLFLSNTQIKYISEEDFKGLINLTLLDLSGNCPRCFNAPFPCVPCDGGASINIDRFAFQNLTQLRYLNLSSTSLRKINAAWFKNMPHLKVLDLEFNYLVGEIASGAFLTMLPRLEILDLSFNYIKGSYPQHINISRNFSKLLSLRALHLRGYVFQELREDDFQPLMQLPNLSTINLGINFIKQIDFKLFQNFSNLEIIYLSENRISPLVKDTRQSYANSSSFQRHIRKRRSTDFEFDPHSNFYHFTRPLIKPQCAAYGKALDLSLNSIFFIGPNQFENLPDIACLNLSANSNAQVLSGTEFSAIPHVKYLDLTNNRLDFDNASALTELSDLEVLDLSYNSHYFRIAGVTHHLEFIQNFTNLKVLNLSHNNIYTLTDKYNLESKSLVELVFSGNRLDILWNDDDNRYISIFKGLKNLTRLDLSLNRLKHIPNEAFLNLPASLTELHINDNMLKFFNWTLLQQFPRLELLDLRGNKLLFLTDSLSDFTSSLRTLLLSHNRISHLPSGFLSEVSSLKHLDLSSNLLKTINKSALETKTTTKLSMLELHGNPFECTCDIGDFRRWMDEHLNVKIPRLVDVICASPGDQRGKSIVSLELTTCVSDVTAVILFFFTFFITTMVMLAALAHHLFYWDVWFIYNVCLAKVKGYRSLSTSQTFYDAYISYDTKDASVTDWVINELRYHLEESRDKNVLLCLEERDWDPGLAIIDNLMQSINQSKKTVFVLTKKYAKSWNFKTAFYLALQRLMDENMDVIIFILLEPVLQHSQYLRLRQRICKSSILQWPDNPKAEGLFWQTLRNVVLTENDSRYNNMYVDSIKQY
human TLR7, sequence (Q9NYK1 27-1049): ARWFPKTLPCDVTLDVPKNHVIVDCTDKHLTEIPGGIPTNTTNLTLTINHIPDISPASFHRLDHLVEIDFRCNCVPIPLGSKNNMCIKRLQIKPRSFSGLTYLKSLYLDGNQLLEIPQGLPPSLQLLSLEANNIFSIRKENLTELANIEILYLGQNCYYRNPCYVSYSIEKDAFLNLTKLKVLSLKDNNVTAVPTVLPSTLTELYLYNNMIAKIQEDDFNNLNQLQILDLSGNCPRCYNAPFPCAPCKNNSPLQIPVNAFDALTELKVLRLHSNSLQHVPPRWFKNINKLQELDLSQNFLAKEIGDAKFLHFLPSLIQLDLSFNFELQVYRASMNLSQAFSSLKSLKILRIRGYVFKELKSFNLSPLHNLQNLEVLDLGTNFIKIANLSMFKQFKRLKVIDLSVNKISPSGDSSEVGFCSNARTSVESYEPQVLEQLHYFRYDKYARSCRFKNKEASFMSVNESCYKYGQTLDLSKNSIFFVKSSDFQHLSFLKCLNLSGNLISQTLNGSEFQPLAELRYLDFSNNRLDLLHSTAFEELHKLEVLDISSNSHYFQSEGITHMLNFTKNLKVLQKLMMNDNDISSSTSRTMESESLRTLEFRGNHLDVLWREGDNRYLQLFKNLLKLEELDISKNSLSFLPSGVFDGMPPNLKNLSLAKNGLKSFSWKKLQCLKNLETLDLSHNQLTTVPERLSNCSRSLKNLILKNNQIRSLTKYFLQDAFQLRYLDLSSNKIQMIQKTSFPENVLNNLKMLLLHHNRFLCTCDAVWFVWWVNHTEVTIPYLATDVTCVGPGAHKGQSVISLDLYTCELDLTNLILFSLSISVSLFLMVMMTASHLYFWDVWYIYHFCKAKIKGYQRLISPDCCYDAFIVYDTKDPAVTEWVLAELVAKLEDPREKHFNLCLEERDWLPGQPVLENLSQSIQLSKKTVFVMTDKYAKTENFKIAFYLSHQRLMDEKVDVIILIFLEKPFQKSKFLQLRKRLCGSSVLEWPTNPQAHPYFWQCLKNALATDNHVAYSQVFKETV
human TLR9, sequence (Q9NR96 26-1032): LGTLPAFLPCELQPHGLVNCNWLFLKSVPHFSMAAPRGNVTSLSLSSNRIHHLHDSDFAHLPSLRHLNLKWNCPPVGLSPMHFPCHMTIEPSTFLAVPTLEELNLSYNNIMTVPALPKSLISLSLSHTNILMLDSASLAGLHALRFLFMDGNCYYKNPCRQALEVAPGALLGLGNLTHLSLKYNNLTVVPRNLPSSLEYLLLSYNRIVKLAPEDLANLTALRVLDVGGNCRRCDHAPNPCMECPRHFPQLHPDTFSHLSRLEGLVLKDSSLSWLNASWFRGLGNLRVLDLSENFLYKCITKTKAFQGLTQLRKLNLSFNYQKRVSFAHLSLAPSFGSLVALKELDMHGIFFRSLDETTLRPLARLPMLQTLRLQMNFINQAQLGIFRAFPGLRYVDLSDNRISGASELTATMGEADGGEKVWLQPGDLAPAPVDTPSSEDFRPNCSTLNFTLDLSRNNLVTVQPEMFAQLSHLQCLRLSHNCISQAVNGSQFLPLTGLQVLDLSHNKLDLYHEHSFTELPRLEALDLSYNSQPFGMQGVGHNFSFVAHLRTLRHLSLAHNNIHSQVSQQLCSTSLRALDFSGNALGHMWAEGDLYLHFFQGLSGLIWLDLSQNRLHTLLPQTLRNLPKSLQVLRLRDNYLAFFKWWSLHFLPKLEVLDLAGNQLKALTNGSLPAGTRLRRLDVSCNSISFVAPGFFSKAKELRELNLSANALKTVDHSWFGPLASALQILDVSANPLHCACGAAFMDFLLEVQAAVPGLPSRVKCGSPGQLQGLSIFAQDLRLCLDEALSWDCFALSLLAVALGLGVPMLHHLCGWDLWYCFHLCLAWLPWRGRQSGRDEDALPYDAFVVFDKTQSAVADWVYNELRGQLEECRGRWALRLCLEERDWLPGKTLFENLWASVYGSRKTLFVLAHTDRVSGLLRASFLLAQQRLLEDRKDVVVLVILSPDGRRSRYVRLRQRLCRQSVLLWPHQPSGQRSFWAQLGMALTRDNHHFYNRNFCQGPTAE

SMILES | pIC50 (human TLR9) | pIC50 (human TLR8) | pIC50 (human TLR7)
COc1ccc(-c2[nH]c3ccc(-c4nnc(C(=O)N5CCC(O)CC5)o4)cc3c2C(C)C)cc1OC [Example 91, (5-(2-(3,4-dimethoxyphenyl)-3-isopropyl-1H-indol-5-yl)-1,3,4-oxadiazol-2-yl)(4-hydroxypiperidin-1-yl)methanone] | < 4.30 | 6.95 | 6.46
COc1ccc(-c2[nH]c3ccc(-c4nnc(C(=O)N5CCCN(C)CC5)o4)cc3c2C(C)C)cc1OC [Example 93, (5-(2-(3,4-dimethoxyphenyl)-3-isopropyl-1H-indol-5-yl)-1,3,4-oxadiazol-2-yl)(4-methyl-1,4-diazepan-1-yl)methanone] | 5.69 | 7.82 | 7.07
COc1ccc(-c2[nH]c3ccc(-c4nnc(C(=O)N(C)CCc5ccccn5)o4)cc3c2C(C)C)cc1OC [Example 94, 5-(2-(3,4-dimethoxyphenyl)-3-isopropyl-1H-indol-5-yl)-N-methyl-N-(2-(pyridin-2-yl)ethyl)-1,3,4-oxadiazole-2-carboxamide] | 4.88 | 6.65 | 6.74
COc1ccc(-c2[nH]c3ccc(-c4nnc(C(=O)N5CCC(N6CCCC6)CC5)o4)cc3c2C(C)C)cc1OC [Example 95, (5-(2-(3,4-dimethoxyphenyl)-3-isopropyl-1H-indol-5-yl)-1,3,4-oxadiazol-2-yl)(4-(pyrrolidin-1-yl)piperidin-1-yl)methanone] | 5.85 | 7.68 | 7.00
COc1ccc(-c2[nH]c3ccc(-c4nnc(C(=O)NCCCn5ccnc5)o4)cc3c2C(C)C)cc1OC [Example 101, N-(3-(1H-imidazol-1-yl)propyl)-5-(2-(3,4-dimethoxyphenyl)-3-isopropyl-1H-indol-5-yl)-1,3,4-oxadiazole-2-carboxamide] | 5.48 | 7.85 | 7.26

The remaining lines, values ahead:

pIC50 (human TLR9) | pIC50 (human TLR8) | pIC50 (human TLR7) | SMILES
4.58 | 6.96 | 6.25 | COc1ccc(-c2[nH]c3ccc(-c4nnc(C(=O)N5CCN(C(C)=O)CC5)o4)cc3c2C(C)C)cc1OC [Example 92, 1-(4-(5-(2-(3,4-dimethoxyphenyl)-3-isopropyl-1H-indol-5-yl)-1,3,4-oxadiazole-2-carbonyl)piperazin-1-yl)ethan-1-one]
5.91 | 8.34 | 7.31 | COc1ccc(-c2[nH]c3ccc(-c4nnc(C(=O)N(C)CCCN(C)C)o4)cc3c2C(C)C)cc1OC [Example 96, 5-(2-(3,4-dimethoxyphenyl)-3-isopropyl-1H-indol-5-yl)-N-(3-(dimethylamino)propyl)-N-methyl-1,3,4-oxadiazole-2-carboxamide]
< 4.30 | 6.62 | 6.03 | COc1ccc(-c2[nH]c3ccc(-c4nnc(C(=O)N5CCN(c6cnccn6)CC5)o4)cc3c2C(C)C)cc1OC [Example 97, (5-(2-(3,4-dimethoxyphenyl)-3-isopropyl-1H-indol-5-yl)-1,3,4-oxadiazol-2-yl)(4-(pyrazin-2-yl)piperazin-1-yl)methanone]
5.58 | 7.77 | 7.17 | COc1ccc(-c2[nH]c3ccc(-c4nnc(C(=O)N5CC[C@H](N(C)C)C5)o4)cc3c2C(C)C)cc1OC [Example 98, (S)-(5-(2-(3,4-dimethoxyphenyl)-3-isopropyl-1H-indol-5-yl)-1,3,4-oxadiazol-2-yl)(3-(dimethylamino)pyrrolidin-1-yl)methanone]
4.79 | 7.07 | 6.25 | COc1ccc(-c2[nH]c3ccc(-c4nnc(C(=O)N5CCC(N6CCOCC6)C5)o4)cc3c2C(C)C)cc1OC (stereo not drawn) [Example 99, (5-(2-(3,4-dimethoxyphenyl)-3-isopropyl-1H-indol-5-yl)-1,3,4-oxadiazol-2-yl)(3-morpholinopyrrolidin-1-yl)methanone]
< 4.30 | 7.51 | 6.07 | COc1ccc(-c2[nH]c3ccc(-c4nnc(C(=O)NCCNC(C)=O)o4)cc3c2C(C)C)cc1OC [Example 100, N-(2-acetamidoethyl)-5-(2-(3,4-dimethoxyphenyl)-3-isopropyl-1H-indol-5-yl)-1,3,4-oxadiazole-2-carboxamide]
